For series [1], the system named is U87 cell transplantation tumor (brain glioma). Description: MSI imaging of drug in brain tissue section (blood-brain barrier penetration). The series is classed as in vivo. Conditions: MSI of brain tissue section with U87 glioma implant. From the text:
FIG. 9 is an MSI image of a drug and a metabolite (compound 27: m/z 499, lactic acid: m/z 113) in a brain tissue section, where an optical micrograph of a serial section of H&E staining is used as a reference. The brain glioma and the lateral ventricle are represented by dashed lines, a color bar encodes signal strength of […] small molecules in […] (MSI), and the resolution is 10 μm.

For the next series, the target named is T1, hexokinase 2 (HK2) (Homo sapiens, UniProt P52789).
T1 sequence (P52789 1-917): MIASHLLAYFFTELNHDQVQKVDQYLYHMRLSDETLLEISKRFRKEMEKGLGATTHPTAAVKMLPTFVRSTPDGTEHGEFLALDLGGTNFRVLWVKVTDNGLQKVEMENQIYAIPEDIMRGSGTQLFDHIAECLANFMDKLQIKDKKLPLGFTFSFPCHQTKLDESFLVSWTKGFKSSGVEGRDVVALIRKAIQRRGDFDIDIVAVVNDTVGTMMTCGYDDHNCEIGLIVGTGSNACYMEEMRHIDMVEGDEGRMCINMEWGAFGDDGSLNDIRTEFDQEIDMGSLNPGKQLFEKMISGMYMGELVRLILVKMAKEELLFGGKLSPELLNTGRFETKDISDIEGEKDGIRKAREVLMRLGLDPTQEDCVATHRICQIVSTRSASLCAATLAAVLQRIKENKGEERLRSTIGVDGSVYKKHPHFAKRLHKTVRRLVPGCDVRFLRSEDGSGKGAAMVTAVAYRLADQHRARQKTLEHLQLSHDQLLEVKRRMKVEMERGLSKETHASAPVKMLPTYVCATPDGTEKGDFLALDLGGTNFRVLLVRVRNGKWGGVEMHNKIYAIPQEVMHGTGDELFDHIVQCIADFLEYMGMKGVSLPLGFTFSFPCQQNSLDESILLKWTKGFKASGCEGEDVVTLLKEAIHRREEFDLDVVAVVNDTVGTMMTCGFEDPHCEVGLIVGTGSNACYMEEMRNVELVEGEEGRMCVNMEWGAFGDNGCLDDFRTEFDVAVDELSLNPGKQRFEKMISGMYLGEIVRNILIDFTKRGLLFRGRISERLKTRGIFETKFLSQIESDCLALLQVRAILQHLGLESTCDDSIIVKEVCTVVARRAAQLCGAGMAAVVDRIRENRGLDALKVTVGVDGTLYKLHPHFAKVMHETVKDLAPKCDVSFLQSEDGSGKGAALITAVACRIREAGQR
Description: HK2 activity test on GLMSD platform (graphite dots MALDI-MS). The format is biochemical. As for the experimental part:
GDs were dispersed in water at a concentration of 1 mg/mL as a matrix solution to be used. A sample was prepared by using a quick-drying method: firstly, 1 μL of matrix solution was dropped onto a target plate, and after natural drying at a room temperature in a […], 1 μL of sample to be analyzed was dropped onto a surface of the dried matrix, and after the sample was naturally dried, mass spectrometry was directly performed:
An instrument in the MALDI-MS was a Bruker Ultraflex III TOF/TOF mass spectrometer, which was mainly in a reflection positive and negative ion mode. Nd of 355 nm for instrument parameter: YAG laser had laser energy of 30% corresponding to 57 μJ per pulse (laser pulse duration: 3 ns), a laser spot size was about 50-100 μm, each sample was repeatedly tested four times, and 3000 laser spots were accumulated in each mass spectrum. All samples were measured under the same instrumental conditions.
an inhibition rate=(1−B/A)×100%, where • A was: a glucose concentration in a pre-reaction solution without the inhibitor-a glucose concentration in a post-reaction solution without the inhibitor, • B was: a glucose concentration in a pre-reaction solution with the inhibitor-a glucose concentration in a post-reaction solution with the inhibitor, and • a glucose concentration in the reaction solution=(mass spectrum signal strength of [glucose+Na]+/mass spectrum signal strength of [glucose-1-^13C+Na]+)×known concentration of glucose-1-^13C.

The test system of a further series is U87 cells. Description: Flow cytometry analysis of U87 cell apoptosis (Annexin V-FITC/PI staining). The format is cell-based. The following applies: 20 μM, 24 hours. The procedure:
In a dulbecco's modified eagle medium (DMEM), 5×10^5 U87 cells were inoculated into a 24-hole plate. After culturing for 24 hours, compound 27 (final concentration 20 μM) was directly added to a cell growth medium, incubated at 37° C. for 24 hours, briefly digested with trypsin, washed twice with cold PBS, centrifuged (2000 rpm, 5 min) and washed twice with cold PBS after a supernatant culture medium was discarded. The cells (1×10^5 cells/mL) were resuspended with a 400 μL of buffer solution (1×). 5 μL of Annexin V-FITC was added to the cell suspension and cultured at 4° C. for 15 minutes. Then, the cells were gently mixed with another dye propidium iodide (PI) (10 μL). The cells were collected for flow cytometry analysis. Data analysis was performed by using a CFLow Plus (Accuri Cytometers).
In order to further confirm the occurrence of apoptosis, the applicant tested the exposed phosphatidylserine by using an annexin V/propidium iodide double staining method, and observed a cell membrane damage phenomenon.
In general terms: In flow cytometry, cells or beads pass a laser one at a time.

As a reminder, the inhibition is the relative decrease from the control value, in per cent. On to `CCOc1ccc(C(=O)NCCCN(C)CCCN(C)Cc2ccccc2)cc1Br` [compound 27], for which the “capacity of penetrating a blood-brain barrier” value in series [1] was “can break through the blood-brain barrier”. For the same molecule, the “inhibitory effect on the HK2” value on hexokinase 2 (HK2) (inhibition curves FIGS. 3-7, colorimetric kit and GLMSD) is listed as “good inhibitory effects”. On hexokinase 2 (HK2) (small-molecule concentration of the inhibitor 20 μM, GLMSD, read-out: inhibition rate of HK2 activity), the inhibition at 20 µM turned out to be 31%. Moreover, in the series on U87 cells, the “early (Annexin+/PI−) apoptotic cells” value is reported as 31.2% and the “late (Annexin+/PI+) apoptotic cells” value is listed as 30.6%.
